Experimental data taken from ChEMBL document CHEMBL2413038, “Synthesis and bioevaluation of novel 4-aminoquinoline-tetrazole derivatives as potent antimalarial agents” (Eur J Med Chem, 2013).
≈ marks a conversion by molar mass, not a printed value. Calls of active or inactive are those of the source. The rule behind the calls is not given here.

Columns and labels:
Plasmodium falciparum [1] = test: Resistance index, ratio of IC50 for chloroquine-resistant Plasmodium falciparum K1 to IC50 for chloroquine-sensitive Plasmodium falciparum 3D7; assay type: functional
Plasma = test: Inhibition of beta-hematin formation in Plasmodium yoelii-infected Swiss albino mouse plasma using hemin as substrate after 16 hrs; assay type: functional, cell-free
[2] = Selectivity index, ratio of CC50 for African green monkey Vero cells to IC50 for Plasmodium falciparum; assay type: functional
Plasmodium falciparum [3] = test: Antimalarial activity against chloroquine-sensitive Plasmodium falciparum 3D7 after 72 hrs by MSF assay; assay type: functional, organism-based; settings: 3D7, 72 h
Plasmodium falciparum [4] = test: Antimalarial activity against chloroquine-resistant Plasmodium falciparum K1 after 72 hrs by MSF assay; assay type: functional, organism-based; settings: K1, 72 h
Plasmodium falciparum [5] = test: Ratio of chloroquine IC50 to compound IC50 for chloroquine-resistant Plasmodium falciparum K1; assay type: functional
Plasmodium yoelii [6] = test: Antimalarial activity against chloroquine-resistant Plasmodium yoelii N-67 infected in Swiss mouse assessed as suppression of parasitaemia level at 50 mg/kg, ip qd for 4 days relative to control; assay type: functional; settings: route intraperitoneal
Plasmodium yoelii [7] = test: Antimalarial activity against chloroquine-resistant Plasmodium yoelii N-67 infected in Swiss mouse assessed as mouse survival at 50 mg/kg, ip qd for 4 days measured on day 28 post infection relative to control; assay type: functional
Plasmodium yoelii [8] = test: Antimalarial activity against chloroquine-resistant Plasmodium yoelii N-67 infected in Swiss mouse assessed as mean survival time at 50 mg/kg, ip qd for 4 days; assay type: functional; settings: route intraperitoneal
Plasmodium yoelii [9] = test: Antimalarial activity against chloroquine-resistant Plasmodium yoelii N-67 infected in Swiss mouse assessed as cured animal at 50 mg/kg, ip qd for 4 days measured on day 28 post infection relative to control; assay type: functional
[10] = Clearance in Sprague-Dawley rat at 10 mg/kg, po; assay type: ADME, organism-based; set-up: dose 10 mg/kg, route oral; settings: in vivo
Rattus norvegicus = test: Volume of distribution in Sprague-Dawley rat at 10 mg/kg, po; assay type: ADME, organism-based; set-up: dose 10 mg/kg, route oral; settings: in vivo
[11] = Cmax in Sprague-Dawley rat at 10 mg/kg, po; assay type: ADME, organism-based; set-up: dose 10 mg/kg, route oral; settings: in vivo
Plasmodium yoelii [12] = test: Antimalarial activity against chloroquine-resistant Plasmodium yoelii N-67 infected in Swiss mouse assessed as mean survival time at 100 mg/kg, po qd for 4 days; assay type: functional
Plasmodium yoelii [13] = test: Antimalarial activity against chloroquine-resistant Plasmodium yoelii N-67 infected in Swiss mouse assessed as suppression of parasitaemia level at 100 mg/kg, po qd for 4 days relative to control; assay type: functional
[14] = AUC (0 to t) in Sprague-Dawley rat at 10 mg/kg, po; assay type: ADME, organism-based; set-up: dose 10 mg/kg, route oral; settings: plasma
[15] = Elimination half life in Sprague-Dawley rat at 10 mg/kg, po; assay type: ADME, organism-based; set-up: dose 10 mg/kg, route oral; settings: in vivo, read-out: beta t1/2 (converted)
[16] = Tmax in Sprague-Dawley rat at 10 mg/kg, po; assay type: ADME, organism-based; set-up: dose 10 mg/kg, route oral; settings: in vivo
Plasmodium yoelii [17] = test: Antimalarial activity against chloroquine-resistant Plasmodium yoelii N-67 infected in Swiss mouse assessed as mouse survival at 100 mg/kg, po qd for 4 days measured on day 28 post infection relative to control; assay type: functional
Plasmodium yoelii [18] = test: Antimalarial activity against chloroquine-resistant Plasmodium yoelii N-67 infected in Swiss mouse assessed as cured animal at 100 mg/kg, po for 4 days measured on day 28 post infection relative to control; assay type: functional

Row | Structure (SMILES) | Ratio IC50 (Plasmodium falciparum [1]) | IC50 (Plasma) | inhibition (Plasma) | Ratio CC50/IC50 [2] | IC50 (Plasmodium falciparum [3]) | IC50 (Plasmodium falciparum [4]) | Activity (Plasmodium yoelii [6]) | Activity (Plasmodium yoelii [7]) | MST (Plasmodium yoelii [8]) | Activity (Plasmodium yoelii [9]) | other results
1 | COc1ccc(C(Nc2ccc(Nc3ccnc4cc(Cl)ccc34)cc2)c2nnnn2C2CCCCC2)cc1OC (configuration not stated) | 0.1 | 5.19 µg/mL (≈ 9.1 µM) | Dose-dependent effect | 49.73 | 853 nM | 144 nM | – | – | – | – | –
2 | Cc1ccc(C(Nc2ccc(Nc3ccnc4cc(Cl)ccc34)cc2)c2nnnn2C(C)(C)C)cc1 (configuration not stated) | 0.07 | 5.39 µg/mL (≈ 10.8 µM) | Dose-dependent effect | – | 1010 nM | 75.4 nM | 21.3% | inactive | 11 days | inactive | Ratio IC50 (Plasmodium falciparum [5]): 3.38
3 | CC(C)(C)n1nnnc1C(Nc1ccc(Nc2ccnc3cc(Cl)ccc23)cc1)c1ccc(Cl)c(Cl)c1 (configuration not stated) | 12.8 | 5.4 µg/mL (≈ 9.77 µM) | Dose-dependent effect | 7076.29 | 11 nM | 142 nM | 71.49% | inactive | 16.83 days | inactive | –
4 | CC(C)(C)n1nnnc1C(NCCCNc1ccnc2cc(Cl)ccc12)c1cccc2ccccc12 (configuration not stated) | 0.8 | 4.45 µg/mL (≈ 8.9 µM) | Dose-dependent effect | 58.67 | 216 nM | 170 nM | – | – | – | – | –
5 | Clc1ccc2c(Nc3ccc(NC(c4ccc(Br)cc4)c4nnnn4C4CCCCC4)cc3)ccnc2c1 (configuration not stated) | 0.8 | 4.38 µg/mL (≈ 7.44 µM) | Dose-dependent effect | 1191.58 | 92.7 nM | 73.7 nM | 69.56% | inactive | 12.6 days | inactive | Ratio IC50 (Plasmodium falciparum [5]): 3.38
6 | CC(C)(C)n1nnnc1C(NCCNc1ccnc2cc(Cl)ccc12)c1ccc(Cl)cc1 (configuration not stated) | 11.6 | 6.15 µg/mL (≈ 13.1 µM) | Dose-dependent effect | 839.68 | 23.9 nM | 278 nM | – | – | – | – | –
7 | COc1ccc(C(Nc2ccc(Nc3ccnc4cc(Cl)ccc34)cc2)c2nnnn2C(C)(C)C)cc1OC (configuration not stated) | 1 | 5.42 µg/mL (≈ 9.96 µM) | Dose-dependent effect | 193.28 | 70.6 nM | 76.2 nM | 26.91% | inactive | 9.8 days | inactive | –
8 | COc1cc(C(Nc2ccc(Nc3ccnc4cc(Cl)ccc34)cc2)c2nnnn2C(C)(C)C)cc(OC)c1OC (configuration not stated) | 10.5 | 5.65 µg/mL (≈ 9.84 µM) | Dose-dependent effect | 300.57 | 54.2 nM | 573 nM | – | – | – | – | –
9 | CCc1ccc(C(Nc2ccc(Nc3ccnc4cc(Cl)ccc34)cc2)c2nnnn2C(C)(C)C)cc1 (configuration not stated) | 13.4 | 5.95 µg/mL (≈ 11.6 µM) | Dose-dependent effect | 3652.19 | 51.4 nM | 688 nM | – | – | – | – | –
10 | CC(C)(C)n1nnnc1C(Nc1ccc(Nc2ccnc3cc(Cl)ccc23)cc1)c1ccc(Cl)cc1 (configuration not stated) | 13.4 | 5.29 µg/mL (≈ 10.2 µM) | Dose-dependent effect | 4616.14 | 10.7 nM | 143 nM | 99.99% | – | 23.6 days | – | CL/F [10]: 61.7 mL/min; Vd (Rattus norvegicus): 28.16 L; Cmax [11]: 49.2 ng/mL; MST (Plasmodium yoelii [12]): 25.2 days; Activity (Plasmodium yoelii [13]): 99.99%; AUC(0-t) [14]: 593 ng·h/mL; half-life [15]: 316 min; Activity (Plasmodium yoelii [7]; route intraperitoneal): 60%; Activity (Plasmodium yoelii [9]; route intraperitoneal): 60%; Tmax [16]: 2 h; Activity (Plasmodium yoelii [17]): 60%; Activity (Plasmodium yoelii [18]): 60%
11 | COc1ccc(C(NCCCNc2ccnc3cc(Cl)ccc23)c2nnnn2C(C)(C)C)cc1OC (configuration not stated) | 2.3 | 5.5 µg/mL (≈ 10.8 µM) | Dose-dependent effect | 1662.92 | 57.9 nM | 138 nM | – | – | – | – | –
